Reference: patent publication US8420311B2, “Method to block the infection by flaviviruses, molecules and uses” (Centro de Ingenieria Genetica y Biotecnologia, priority 2006, dated 2013)
Bridges are numbered along the chain shown (N, C = ends). Where no end group is shown, it is not given here.

Legend:
DV1 = type: cell-based, dengue virus; settings: peptides 0.1 mg/ml; Vero cells
Procedure: (§1) FIG. 17. Inhibition of the infection of Vero cells with DV1 and DV2. (A) Six-well plates with a monolayer at approximately 90% confluence were incubated for 30 min. at 37° C. with dilutions of the peptides in MEM medium. A dilution of either DV1 strain West Pac 74 or DV2 strain S16803 was then added, calculated so as to obtain an average of 100 lytic plaques per well, and the plates were incubated for 30 min. at 37° C. with the virus/peptide mixture. After the incubation the cells were washed twice, received the addition of MEM medium supplemented with non-essential amino acids, 1% fetal calf serum, 1% CMC, and finally were incubated for 5 days at 37° C. under a CO2 atmosphere. (B) Inhibitory effect of the peptides at 100 μMol/L. NRpep: Non-related peptide. Data on the sequence of the peptides 3H5pept (SEQ ID. 27), pepDIII-1 (SEQ ID. 28), HIII2CL (SEQ ID. 5) and HIII3CL (SEQ ID. 7), as well as on the region they span on DIII from DV, can be obtained from FIG. 11. The calculation of the inhibition percentages is described in Materials and Methods. (C) Inhibition of DV2 infection by using varying peptide concentrations. The viral plaques were visualized by staining with Naphtol Blue Black. Cell control: Untreated cells. Virus control: Cells incubated with the virus, but without peptide.
(§2) DIII has one of the most variable regions of the exposed surface of protein E. In fact, one of the antigenic characteristics of this domain is that the antibodies obtained against this region are predominantly serotype-specific (Roehrig J T, Bolin R A, Kelly R G (1998) Monoclonal antibody mapping of the envelope glycoprotein of the dengue 2 virus, Jamaica Virology 246:317-28). However, during the inhibition assay with different DV serotypes, the peptides display a wide-spectrum inhibitory activity, efficiently inhibiting the infection of strains of the homologous, as well as of the heterologous serotypes (table 3). It is important to notice that at the assayed concentration (0.1 mg/ml) all the peptides in all the conditions, with the exception of peptide HIII4CL for DV3, produced higher than 50% inhibition levels.

DV2 = type: cell-based, dengue virus; settings: peptides 0.1 mg/ml; Vero cells
Procedure: as §1, §2

DV3 = type: cell-based, dengue virus; settings: peptides 0.1 mg/ml; Vero cells
From the text: as §2

DV4 = type: cell-based, dengue virus; settings: peptides 0.1 mg/ml; Vero cells
From the text: as §2

A2MR receptor = assay: Effect of peptides on the binding of fluoresceinated A2M and RAPR13 to Vero cells (flow cytometry); type: cell-based, monkey; settings: increasing peptide concentrations (FIG. 19)
Procedure: FIG. 19. Effect produced on the binding of A2M and RAPR13 to the surface of Vero cells by simultaneous incubation with the peptides. The fluoresceinated A2M and RAP13 proteins were incubated for 30 min. at 4° C. with pre-fixed Vero cells in the presence of varying concentrations of HIII2CL and 3H5pept in order to reach the indicated molar peptide/protein ratios. The binding of the labeled ligands was detected by flow cytometry.
In order to obtain a direct evidence of the interaction with the A2MR receptor, the effect of one of the designed peptides on the binding of the natural ligands of A2MR to Vero cells was investigated. The assay was performed with fluoresceinated A2M and RAPR13, measuring their binding to Vero cells in the presence of increasing concentrations of the HDIII2CL peptide. The amount of protein bound to the cells was estimated by flow cytometry, using recombinant human EGF (rhEGF) as a negative control for the experiment, since it is known that Vero cells express the EGF receptor in their surface (Copp J, Wiley S, Ward M W, van der Geer P (2005) Hypertonic shock inhibits growth factor receptor signaling, induces caspase-3 activation, and causes reversible fragmentation of the mitochondrial network. Am J Physiol Cell Physiol. 288:C403-15).

mAb 3H5 = assay: Recognition by mAb 3H5 in Western blotting / dot blotting; type: binding; settings: signal lost upon reduction and carbamidomethylation
From the text: FIG. 12. (A) Sequence of the peptides designed to mimic different regions on the surface of DIII. The residue numbering corresponds to the sequence for protein E of DV serotype 2, strain Jamaica 1409, available from the Swiss-Prot databank with access number P07564. The underlined residues are not present in protein E and were introduced during design. The cysteine residues are used to restrict the structural mobility of the peptide by a disulphide bridge. (B) Recognition of the HDIII2Cs peptide by the neutralizing antibody 3H5 in a Western blotting assay. 50 μg of the BSA-peptide conjugates and 20 μg of the recombinant protein PD5 were electrophoresed on a 12.5% SDS-PAGE gel and transferred to a nitrocellulose membrane. After blocking, the membrane was incubated with a dilution (30 μg/mL) of the 3H5 mAb for 2 hours at 25° C. The bound antibody was detected with an anti-mouse IgG-peroxidase conjugate, and the blots were developed using chemiluminescence. (C) Two pieces of nitrocellulose membrane were sensitized in parallel with 10 μg of each variant of the protein and of the peptides. […]
With the aim of evaluating the recognition of peptide HDIII2Cs by mAb 3H5, peptide-BSA conjugates were prepared and analyzed by Western blotting with this antibody (FIG. 12B). […]

DV = assay: Inhibition of the infection of Vero cells with DV by pre-incubation of the virus with A2M; type: cell-based, dengue virus; settings: incubation times with virus longer than 30 minutes (FIG. 20B)
Procedure: FIG. 20. Inhibition of the infection of Vero cells with DV by pre-incubation with A2M. Viral preparations were incubated 1 h at 25° C. (A and C) or the indicated time (B) with the proteins i. e. activated A2M (A2Mact), non-activated A2M (A2M no act) and a non-related protein (NR). The mixtures of the proteins with the virus were added to monolayers of Vero cells and incubated for 1 h at 37° C. The cell monolayers were washed to eliminate non-bound virus. Next, medium MEM supplemented with non-essential amino acids and 1% FBS, 1% CMC was added and the cells were incubated for 5 days at 37° C. in a CO2 incubator. To visualize the viral plaques, Vero cells were stained using Naphtol Blue Black. All experimental points were performed on duplicates.
To obtain further evidences of the interaction of DV with A2M, the two variants of the protein i.e. activated and non-activated were used in assays of inhibition of infection of Vero cells. The viral preparation was incubated with solutions of activated A2M of higher concentrations than the physiological concentrations reached by this variant of the protein. Solutions of equimolar concentration of non-activated A2M and a non-related protein were used as negative controls. […]

| Molecule | degree of reduction of the number of viral plaques, DV1 (DV1) | degree of reduction of the number of viral plaques, DV2 (DV2) | degree of reduction of the number of viral plaques, DV3 (DV3) | degree of reduction of the number of viral plaques, DV4 (DV4) | amount of surface-bound RAPR13 (A2MR receptor) | recognition by mAb 3H5 (mAb 3H5) | increase of viral infection (DV) [%] |
| --- | --- | --- | --- | --- | --- | --- | --- |
| 3H5pept: peptide reported in the literature as part of the epitope recognized by mAb 3H5, SEQ ID. 27 (KAQLKLNWFKKGSS) [Peptide 3H5pept, reference compound] | − (Less than 10% decrease in the number of plaques) | − (Less than 10% decrease in the number of plaques) | − (Less than 10% decrease in the number of plaques) | − (Less than 10% decrease in the number of plaques) | does not produce variations | – | – |
| HDIII2Cs: cyclic peptide corresponding to Ile379-Lys388 from protein E of DV2, Seq. ID. 4 (CIIGVEPGQLKC-NH2; disulfide 1-12) | − (Less than 10% decrease in the number of plaques) | − (Less than 10% decrease in the number of plaques) | − (Less than 10% decrease in the number of plaques) | − (Less than 10% decrease in the number of plaques) | – | recognized by mAb 3H5 | – |
| non-activated A2M: non-activated variant of purified human A2M (protein) SVSGKPQYMVLVPSLLHTETTEKGCVLLSYLNETVTVSASLESVRGNRSLFTDLEAENDVLHCVAFAVPKSSSNEEVMFLTVQVKGPTQEFKKRTTVMVKNEDSLVFVQTDKSIYKPGQTVKFRVVSMDENFHPLNELIPLVYIQDPKGNRIAQWQSFQLEGGLKQFSFPLSSEPFQGSYKVVVQKKSGGRTEHPFTVEEFVLPKFEVQVTVPKIITILEEEMNVSVCGLYTYGKPVPGHVTVSICRKYSDASDCHGEDSQAFCEKFSGQLNSHGCFYQQVKTKVFQLKRKEYEMKLHTEAQIQEEGTVVELTGRQSSEITRTITKLSFVKVDSHFRQGIPFFGQVRLVDGKGVPIPNKVIFIRGNEANYYSNATTDEHGLVQFSINTTNVMGTSLTVRVNYKDRSPCYGYQWVSEEHEEAHHTAYLVFSPSKSFVHLEPMSHELPCGHTQTVQAHYILNGGTLLGLKKLSFYYLIMAKGGIVRTGTHGLLVKQEDMKGHFSISIPVKSDIAPVARLLIYAVLPTGDVIGDSAKYDVENCLANKVDLSFSPSQSLPASHAHLRVTAAPQSVCALRAVDQSVLLMKPDAELSASSVYNLLPEKDLTGFPGPLNDQDDEDCINRHNVYINGITYTPVSSTNEKDMYSFLEDMGLKAFTNSKIRKPKMCPQLQQYEMHGPEGLRVGFYESDVMGRGHARLVHVEEPHTETVRKYFPETWIWDLVVVNSAGVAEVGVTVPDTITEWKAGAFCLSEDAGLGISSTASLRAFQPFFVELTMPYSVIRGEAFTLKATVLNYLPKCIRVSVQLEASPAFLAVPVEKEQAPHCICANGRQTVSWAVTPKSLGNVNFTVSAEALESQELCGTEVPSVPEHGRKDTVIKPLLVEPEGLEKETTFNSLLCPSGGEVSEELSLKLPPNVVEESARASVSVLGDILGSAMQNTQNLLQMPYGCGEQNMVLFAPNIYVLDYLNETQQLTPEVKSKAIGYLNTGYQRQLNYKHYDGSYSTFGERYGRNQGNTWLTAFVLKTFAQARAYIFIDEAHITQALIWLSQRQKDNGCFRSSGSLLNNAIKGGVEDEVTLSAYITIALLEIPLTVTHPVVRNALFCLESAWKTAQEGDHGSHVYTKALLAYAFALAGNQDKRKEVLKSLNEEAVKKDNSVHWERPQKPKAPVGHFYEPQAPSAEVEMTSYVLLAYLTAQPAPTSEDLTSATNIVKWITKQQNAQGGFSSTQDTVVALHALSKYGAATFTRTGKAAQVTIQSSGTFSSKFQVDNNNRLLLQQVSLPELPGEYSMKVTGEGCVYLQTSLKYNILPEKEEFPFALGVQTLPQTCDEPKAHTSFQISLSVSYTGSRSASNMAIVDVKMVSGFIPLKPTVKMLERSNHVSRTEVSSNHVLIYLDKVSNQTLSLFFTVLQDVPVRDLKPAIVKVYDYYETDEFAIAEYNAPCSKDLGNA | – | – | – | – | – | – | ≤ 50 |
